In patent publication US8354419B2, “Benzimidazole analogues for the treatment or prevention of flavivirus infections” (Vertex Pharmaceuticals Incorporated, priority 2009, dated 2013):

Tested on: HCV (Ib) RNA replication
Experiment: Cell-based luciferase reporter HCV (1b) RNA replication assay (replicon cell lines Huh-7 5.2 and ET)
Design: species or system Hepatitis C virus
Details: Hepatitis C virus, Huh-7, 96 h, HCV 1b genotype replicon, luciferase readout, 4 days incubation; read-out: EC50_1b
Source text: Cell-Based Luciferase Reporter HCV (Ib) RNA Replication Assay Cell Culture
Replicon cell lines Huh-7, 5.2 and ET which are derived from the Huh-7 hepatocarcinoma cell line are maintained in culture as generally described in Krieger, N; Lohmann, V; Bartenschlager, R. Enhancement of hepatitis C virus RNA replication by cell culture-adaptive mutations. J. Virol. 2001, 75, 4614-4624. The Huh-7, 5.2 cells contain the highly cell culture-adapted replicon I389luc-ubi-neo/NS3-3′/5.1 construct that carries, in addition to the neomycin gene, an integrated copy to the firefly luciferase gene (Krieger, N; Lohmann, V; Bartenschlager, R. Enhancement of hepatitis C virus RNA replication by cell culture-adaptive mutations. J. Virol. 2001, 75, 4614-4624). This cell line allows measurement of HCV RNA replication and translation by measuring luciferase activity. It has been previously shown that the luciferase activity tightly follows the replicon RNA level in these cells (Krieger, N; Lohmann, V; Bartenschlager, R. Enhancement of hepatitis C virus RNA replication by cell culture-adaptive mutations. J. Virol. 2001, 75, 4614-4624). The Huh-7, ET cell line has the same features as those mentioned for Huh-7, 5.2 cell line, except that ET cells are more robust and contain an adaptative mutation in the HCV NS4B gene instead of NS5A. Both cell lines are maintained in cultures at a sub-confluent level (<85%) as the level of replicon RNA is highest in actively proliferating cells. The culture media used for cell passaging consist of DMEM (Gibco BRL Laboratories, Mississauga, ON, Canada) supplemented with 10% foetal bovine serum with 1% penicillin/streptomycin, 1% glutamine, 1% sodium pyruvate, 1% non-essential amino acids, and 180 ug/ml of G418 final concentration. Cells are incubated at 37° C., in an atmosphere of 5% CO2 and passaged twice a week to maintain sub-confluence.
Approximately 3000 viable Huh-7, 5.2 or ET cells (100 μl) are plated per well in a white opaque 96-well microtiter plate. The cell culture media used for the assay is the same as described above except that it contains no G418 and no phenol red. After an incubation period of 3-4 hours at 37° C. in a 5% CO2 incubator, compounds (100 μl) are added at various concentrations. Cells are then further incubated for 4 days at 37° C. in a 5% CO2 incubator. Thereafter, the culture media is removed and cells are lysed by the addition of 95 μL of the luciferase buffer (luciferin substrate in buffered detergent). Cell lysates are incubated at room temperature and protected from direct light for at least 10 minutes. Plates are read for luciferase counts using a luminometer (Wallac MicroBeta Trilux, Perkin ELmer™, MA, USA).
The 50% inhibitory concentrations (IC50s) for inhibitory effect are determined from dose response curves using eleven concentrations per compound in duplicate. Curves are fitted to data points using nonlinear regression analysis, and IC50s are interpolated from the resulting curve using GraphPad Prism software, version 2.0 (GraphPad Software Inc., San Diego, Calif., USA).
Table 2 show compounds representative of the present invention and the EC50 values against the HCV 1b genotype.

`COC(=O)N[C@H](C(=O)N1CCC[C@H]1c1nc2cc(C#Cc3ccc4[nH]c([C@@H]5CCCN5C(=O)[C@@H](NC(=O)OC)C(C)(C)C)nc4c3)ccc2[nH]1)C(C)C` [Compound 36, {(S)-1-[(S)-2-(5-{2-[(S)-1-((S)-2-Methoxycarbonylamino-3-methyl-butyryl)-pyrrolidin-2-yl]-1H-benzoimidazol-5-ylethynyl}-1H-benzoimidazol-2-yl)-pyrrolidine-1-carbonyl]-2,2-dimethyl-propyl}-carbamic acid methyl ester] and `COC(=O)N[C@H](C(=O)N1CCC[C@H]1c1nc2cc(C#Cc3ccc4[nH]c([C@@H]5CCCN5C(=O)[C@H](NC(=O)OC)C(C)C)nc4c3)ccc2[nH]1)C(C)C` [Compound 62] cannot be ordered by EC50: ≤ 5 nM for the first, ≤ 5 nM for the second.

`CC[C@H](NC(=O)OC)C(=O)N1CCC[C@H]1c1nc2cc(C#Cc3ccc4[nH]c([C@@H]5CCCN5C(=O)[C@H](CC)NC(=O)OC)nc4c3)ccc2[nH]1` [Compound 118] and `COC(=O)N[C@H](C(=O)N1CCC[C@H]1c1nc2cc(C#Cc3ccc4[nH]c([C@@H]5CCCN5C(=O)[C@@H](NC(=O)OC)C5CC5)nc4c3)ccc2[nH]1)C1CC1` [Compound 94] cannot be ordered by EC50: ≤ 5 nM for the first, 5 to 5000 nM for the second.

`COC(=O)N[C@H](C(=O)N1[C@H](C)CC[C@H]1c1nc2cc(-c3ccc(-c4ccc5[nH]c([C@@H]6CC[C@@H](C)N6C(=O)[C@@H](NC(=O)OC)C(C)C)nc5c4)cc3)ccc2[nH]1)C(C)C` [Compound 310] and `COC(=O)N[C@H](C(=O)N1[C@@H](C)CC[C@H]1c1nc2ccc(-c3ccc(-c4ccc5nc([C@@H]6CC[C@H](C)N6C(=O)[C@@H](NC(=O)OC)C(C)C)[nH]c5c4)c(F)c3)cc2[nH]1)C(C)C` [Compound 322] cannot be ordered by EC50: ≤ 5 nM for the first, ≤ 5 nM for the second.

`CCC(CC)CN1CCC[C@H]1c1nc2cc(C#Cc3ccc4[nH]c([C@@H]5CCCN5CC(CC)CC)nc4c3)ccc2[nH]1` [Compound 140] and `CCOCCC(=O)N1CCC[C@H]1c1nc2cc(C#Cc3ccc4[nH]c([C@@H]5CCCN5C(=O)CCOCC)nc4c3)ccc2[nH]1` [Compound 107] fall in the same range of EC50: 5 to 5000 nM for the first, 5 to 5000 nM for the second.

`COCC(=O)N[C@H](C(=O)N1CCC[C@H]1c1nc2ccc(-c3ccc(-c4ccc5nc([C@@H]6CCCN6C(=O)[C@@H](NC(=O)COC)C(C)C)[nH]c5c4)cc3)cc2[nH]1)C(C)C` [Compound 196] and `COC(=O)N[C@H](C(=O)N1CCC[C@H]1c1nc2cc(-c3ccc(-c4ccc5nc([C@@H]6CCCN6C(=O)[C@@H](NC(=O)OC)C(C)C)[nH]c5c4)cc3C)ccc2[nH]1)C(C)C` [Compound 7, ((S)-1-{(S)-2-[5-(4-{2-[(S)-1-((S)-2-Methoxycarbonylamino-3-methyl-butyryl)-pyrrolidin-2-yl]-1H-benzoimidazol-5-yl}-2-methyl-phenyl)-1H-benzoimidazol-2-yl]-pyrrolidine-1-carbonyl}-2-methyl-propyl)-carbamic acid methyl ester] cannot be ordered by EC50: 5 to 5000 nM for the first, ≤ 5 nM for the second.

`COC(=O)N[C@H](C(=O)N1CCC[C@H]1c1nc2cc(-c3ccc(-c4ccc5[nH]c([C@@H]6C[C@H](C)CN6C(=O)[C@@H](NC(=O)OC)C(C)C)nc5c4)cc3)ccc2[nH]1)C(C)C` [Compound 272] and `CCc1cc(-c2ccc3[nH]c([C@@H]4CCCN4C(=O)[C@@H](NC(=O)OC)C(C)C)nc3c2)ccc1-c1ccc2[nH]c([C@@H]3CCCN3C(=O)[C@@H](NC(=O)OC)C(C)C)nc2c1` [Compound 213] cannot be ordered by EC50: ≤ 5 nM for the first, ≤ 5 nM for the second.

`CCCC/C(=C/c1ccc2[nH]c([C@@H]3CCCN3C(=O)[C@@H](NC(=O)OC)C(C)C)nc2c1)c1ccc2[nH]c([C@@H]3CCCN3C(=O)[C@@H](NC(=O)OC)C(C)C)nc2c1` [Compound 153] and `COC(=O)N[C@H](C(=O)N1CCC[C@H]1c1nc2cc(-c3ncc(-c4ccc5nc([C@@H]6CCCN6C(=O)[C@@H](NC(=O)OC)C(C)C)[nH]c5c4)c(O)n3)ccc2[nH]1)C(C)C` [Compound 20, ((S)-1-{(S)-2-[5-(4-Hydroxy-5-{2-[(S)-1-((S)-2-methoxycarbonylamino-3-methyl-butyryl)-pyrrolidin-2-yl]-1H-benzoimidazol-5-yl}-pyrimidin-2-yl)-1H-benzoimidazol-2-yl]-pyrrolidine-1-carbonyl}-2-methyl-propyl)-carbamic acid methyl ester] cannot be ordered by EC50: ≤ 5 nM for the first, 5 to 5000 nM for the second.

`CC(C)[C@@H](C(=O)N1CCC[C@H]1c1nc2cc(C#Cc3ccc4[nH]c([C@@H]5CCCN5C(=O)[C@H](C(C)C)N5CCCC5=O)nc4c3)ccc2[nH]1)N1CCCC1=O` [Compound 81] and `CC(=O)N[C@@H](C(=O)N1CCC[C@@H]1c1nc2cc(C#Cc3ccc4[nH]c([C@H]5CCCN5C(=O)[C@H](NC(C)=O)C(C)C)nc4c3)ccc2[nH]1)C(C)C` [Compound 98] cannot be ordered by EC50: ≤ 5 nM for the first, 5 to 5000 nM for the second.

`COC(=O)N[C@H](C(=O)N1CCC[C@H]1c1nc2ccc(-c3ccc(-c4ccc5nc([C@@H]6CCCN6C(=O)[C@@H](NC(=O)OC)C(C)C)n(C)c5c4)cc3)cc2n1C)C(C)C` [Compound 259] and `COC(=O)N[C@H](C(=O)N1CCC[C@H]1c1nc2cc(-c3ccc(-c4ccc5[nH]c([C@@H]6CCCN6C(=O)[C@@H](NC(=O)OC)C(C)C)nc5c4)c(C#N)n3)ccc2[nH]1)C(C)C` [Compound 11, ((S)-1-{(S)-2-[5-(2-Cyano-6-{2-[(S)-1-((S)-2-methoxycarbonylamino-3-methyl-butyryl)-pyrrolidin-2-yl]-1H-benzoimidazol-5-yl}-pyridin-3-yl)-1H-benzoimidazol-2-yl]-pyrrolidine-1-carbonyl}-2-methyl-propyl)-carbamicacid methyl ester] cannot be ordered by EC50: ≤ 5 nM for the first, 5 to 5000 nM for the second.

`COC(=O)N[C@H](C(=O)N1C[C@@H](C)C[C@H]1c1nc2cc(-c3cc(F)c(-c4ccc5[nH]c([C@@H]6C[C@H](C)CN6C(=O)[C@@H](NC(=O)OC)C(C)C)nc5c4)cc3F)ccc2[nH]1)C(C)C` [Compound 280] and `COC(=O)N[C@H](C(=O)N1C[C@@H](C)C[C@H]1c1nc2cc(-c3cc4sc(-c5ccc6[nH]c([C@@H]7C[C@H](C)CN7C(=O)[C@H](C(C)C)N(C)C(=O)OC)nc6c5)cc4s3)ccc2[nH]1)C(C)C` [Compound 264] cannot be ordered by EC50: ≤ 5 nM for the first, ≤ 5 nM for the second.

`CC(C)(C)OC(=O)N1CCN(C(=O)OCc2ccccc2)[C@H](c2nc3cc(C#Cc4ccc5[nH]c([C@@H]6CCCCN6C(=O)OCc6ccccc6)nc5c4)ccc3[nH]2)C1` [Compound 28, (S)-2-{5-[2-((S)-1-Benzyloxycarbonyl-piperidin-2-yl)-1H-benzoimidazol-5-ylethynyl]-1H-benzoimidazol-2-yl}-piperazine-1,4-dicarboxylic acid 1-benzyl ester 4-tert-butyl ester] and `COC(=O)N[C@@H](C)C(=O)N1CCC[C@H]1c1nc2cc(C#Cc3ccc4[nH]c([C@@H]5CCCCN5C(=O)OCc5ccccc5)nc4c3)ccc2[nH]1` [Compound 52] cannot be ordered by EC50: 5 to 5000 nM for the first, ≤ 5 nM for the second.

First: COCCCC(=O)N1CCC[C@H]1c1nc2cc(C#Cc3ccc4[nH]c([C@@H]5CCCN5C(=O)CCCOC)nc4c3)ccc2[nH]1 [Compound 105]
Second: O=C([C@H]1C[C@H](O)CN1)N1CCC[C@H]1c1nc2cc(C#Cc3ccc4[nH]c([C@@H]5CCCN5C(=O)[C@H]5C[C@H](O)CN5)nc4c3)ccc2[nH]1 [Compound 100]
The EC50 of the first is lower: 5 to 5000 nM for the first, > 5000 nM for the second. The first is the more potent here.

`COC(=O)N[C@H](C(=O)N1CCC[C@H]1c1nc2cc(-c3ncc(-c4ccc5nc([C@@H]6CCCN6C(=O)[C@@H](NC(=O)OC)C(C)C)[nH]c5c4)c(OCc4ccccc4)n3)ccc2[nH]1)C(C)C` [Compound 19, ((S)-1-{(S)-2-[5-(4-Benzyloxy-5-{2-[(S)-1-((S)-2-methoxycarbonylamino-3-methyl-butyryl)-pyrrolidin-2-yl]-1H-benzoimidazol-5-yl}-pyrimidin-2-yl)-1H-benzoimidazol-2-yl]-pyrrolidine-1-carbonyl}-2-methyl-propyl)-carbamic acid methyl ester] and `COC(=O)N[C@H](C(=O)N1CCC[C@H]1c1nc2c(F)cc(-c3ccc(-c4cc(F)c5nc([C@@H]6CCCN6C(=O)[C@@H](NC(=O)OC)C(C)C)[nH]c5c4)c(C)c3)cc2[nH]1)C(C)C` [Compound 254] cannot be ordered by EC50: ≤ 5 nM for the first, ≤ 5 nM for the second.

Work on `C[C@H]1CN(c2ccc3nc([C@@H]4CCCN4C(=O)OC(C)(C)C)[nH]c3c2)CCN1c1ccc2nc([C@@H]3CCCN3C(=O)OC(C)(C)C)[nH]c2c1` [Compound 275] yielded an EC50 of 5 to 5000 nM.
